System: human ventricular muscle organ strips
Assay: Force generation of muscle strips from HVP-derived human muscle organ in response to electric stimulation
Details: muscle strips of 5-month graft, p<0.05 compared to control
Text: One of the critical limitations for the utility of hPSCs for studies of human cardiac biology and disease is their lack of maturity and persistence of expression of fetal isoforms. […] Animals were sacrificed and the engrafted kidneys were removed for further analysis. The 5-month human graft was a hemisphere structure with the radius of 0.4 cm (diameter of 0.8 cm). […] In addition, muscle trips taken from our mature human muscle organ generated forces (0.36±0.04 mN) in response to electric stimulation and increased their force generation after treatment with a β-adrenergic agonist isoprenaline (0.51±0.02 mN, p<0.05 compared to control). Taken together, these studies indicate that the HVPs are capable of generating a fully functional, mature human ventricular muscle organ in vivo via a cell autonomous pathway, i.e., without the addition of other cells, genes, matrix proteins, or biomaterials.

CC(C)NCC(O)c1ccc(O)c(O)c1 (stereo not shown) [isoprenaline]
force generation after treatment with β-adrenergic agonist: 0.51±0.02 mN

Source: US10612094B2, “Genetic markers for engraftment of human cardiac ventricular progenitor cells” (Procella Therapeutics AB, priority 2016, dated 2020)
